Measurements from ChEMBL document CHEMBL1201862, “PubChem BioAssay data set” (2004).
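1) Cells in 96-well plates. 2) Compound, 48 h, 5 concentrations. 3) Linear interpolation between surrounding doses. 4) Unreached endpoint = highest concentration. At the GI50, growth is halved.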 The source made the active and inactive calls. No stated cut-off is given here; in the data, active = GI50 up to about 1.1 µM and inactive = higher.

What was measured:
Test in all cases: DTP human tumour cell line panel, 48 h
SW-620 = tested on: SW-620
K562 = tested on: K562
MDA-N = tested on: MDA-N
LOX IMVI = tested on: LOX IMVI
UO-31 = tested on: UO-31
RPMI-8226 = tested on: RPMI-8226
OVCAR-8 = tested on: OVCAR-8
U-251 = tested on: U-251
SK-MEL-5 = tested on: SK-MEL-5
DU-145 = tested on: DU-145
A549 = tested on: A549
SR = tested on: SR
HT-29 = tested on: HT-29
CCRF-CEM = tested on: CCRF-CEM
MDA-MB-231 = tested on: MDA-MB-231
SK-OV-3 = tested on: SK-OV-3
UACC-257 = tested on: UACC-257
MDA-MB-435 = tested on: MDA-MB-435
SK-MEL-28 = tested on: SK-MEL-28
NCI/ADR-RES = tested on: NCI/ADR-RES
SNB-75 = tested on: SNB-75
M14 = tested on: M14
NCI-H23 = tested on: NCI-H23
ACHN = tested on: ACHN
UACC-62 = tested on: UACC-62
COLO 205 = tested on: COLO 205
SNB-19 = tested on: SNB-19
A498 = tested on: A498
PC-3 = tested on: PC-3
SN12C = tested on: SN12C
SF-268 = tested on: SF-268
HOP-92 = tested on: HOP-92
MCF7 = tested on: MCF7
T47D = tested on: T47D
OVCAR-3 = tested on: OVCAR-3
NCI-H460 = tested on: NCI-H460
KM12 = tested on: KM12
CAKI-1 = tested on: CAKI-1
SK-MEL-2 = tested on: SK-MEL-2
NCI-H226 = tested on: NCI-H226
OVCAR-4 = tested on: OVCAR-4
MOLT-4 = tested on: MOLT-4
HCT-116 = tested on: HCT-116
786-0 = tested on: 786-0
RXF 393 = tested on: RXF 393
HCT-15 = tested on: HCT-15
HOP-62 = tested on: HOP-62
SF-295 = tested on: SF-295
HCC 2998 = tested on: HCC 2998
OVCAR-5 = tested on: OVCAR-5
IGROV-1 = tested on: IGROV-1
EKVX = tested on: EKVX
Malme-3M = tested on: Malme-3M
TK-10 = tested on: TK-10
HL-60 = tested on: HL-60
BT-549 = tested on: BT-549
SF-539 = tested on: SF-539

In the case of CC(C)CCNC(=O)c1ccc(CNC(=O)/C=C/c2ccc(OCc3ccccc3)cc2)cc1, the GI50 (SW-620) is reported as > 100 µM (inactive), the GI50 (K562) is reported as > 100 µM (inactive) and the GI50 (MDA-N) is reported as > 100 µM (inactive). The GI50 (LOX IMVI) was > 100 µM (inactive), the GI50 (UO-31) was > 100 µM (inactive) and the GI50 (RPMI-8226) was > 100 µM (inactive). For the same molecule, the GI50 (OVCAR-8) was > 100 µM (inactive), the GI50 (U-251) was > 100 µM (inactive) and the GI50 (SK-MEL-5) was > 100 µM (inactive). The GI50 (DU-145) was > 100 µM (inactive), the GI50 (A549) was > 100 µM (inactive) and the GI50 (SR) was > 100 µM (inactive). The GI50 (HT-29) was > 100 µM (inactive), the GI50 (CCRF-CEM) was > 100 µM (inactive) and the GI50 (MDA-MB-231) was > 100 µM (inactive). For the same molecule, the GI50 (SK-OV-3) was > 100 µM (inactive), the GI50 (UACC-257) was > 100 µM (inactive) and the GI50 (MDA-MB-435) was > 100 µM (inactive). For the same molecule, the GI50 (SK-MEL-28) was > 100 µM (inactive), the GI50 (NCI/ADR-RES) was > 100 µM (inactive) and the GI50 (SNB-75) was > 100 µM (inactive). For the same molecule, the GI50 (M14) was > 100 µM (inactive), the GI50 (NCI-H23) was > 100 µM (inactive) and the GI50 (ACHN) was > 100 µM (inactive). For the same molecule, the GI50 (UACC-62) was > 100 µM (inactive), the GI50 (COLO 205) was > 100 µM (inactive) and the GI50 (SNB-19) was > 100 µM (inactive). The GI50 (A498) was > 100 µM (inactive), the GI50 (PC-3) was > 100 µM (inactive) and the GI50 (SN12C) was > 100 µM (inactive). The GI50 (SF-268) was > 100 µM (inactive), the GI50 (HOP-92) was > 100 µM (inactive) and the GI50 (MCF7) was > 100 µM (inactive). The GI50 (T47D) was > 100 µM (inactive), the GI50 (OVCAR-3) was > 100 µM (inactive) and the GI50 (NCI-H460) was > 100 µM (inactive). For the same molecule, the GI50 (KM12) was > 100 µM (inactive), the GI50 (CAKI-1) was > 100 µM (inactive) and the GI50 (SK-MEL-2) was > 100 µM (inactive). For the same molecule, the GI50 (NCI-H226) was 39.9 µM (inactive), the GI50 (OVCAR-4) was > 100 µM (inactive) and the GI50 (MOLT-4) was > 100 µM (inactive). The GI50 (HCT-116) was > 100 µM (inactive), the GI50 (786-0) was > 100 µM (inactive) and the GI50 (RXF 393) was > 100 µM (inactive). The GI50 (HCT-15) was over 100 µM, the GI50 (HOP-62) was > 100 µM (inactive) and the GI50 (SF-295) was > 100 µM (inactive). The GI50 (HCC 2998) was > 100 µM (inactive) and the GI50 (OVCAR-5) was > 100 µM (inactive).
In the case of Cc1c(CCCl)c(N=P(c2ccccc2)(c2ccccc2)c2ccccc2)n2c(nc3ccccc32)c1C#N, the GI50 (SW-620) is reported as > 10 µM (inactive), the GI50 (K562) is reported as > 10 µM (inactive) and the GI50 (MDA-N) is reported as > 10 µM (inactive). The GI50 (LOX IMVI) was > 10 µM (inactive), the GI50 (RPMI-8226) was > 10 µM (inactive) and the GI50 (OVCAR-8) was > 10 µM (inactive). The GI50 (SK-MEL-5) was > 10 µM (inactive), the GI50 (DU-145) was > 10 µM (inactive) and the GI50 (A549) was > 10 µM (inactive). The GI50 (SR) was > 10 µM (inactive), the GI50 (HT-29) was 5.79 µM (inactive) and the GI50 (CCRF-CEM) was 4.67 µM (inactive). The GI50 (MDA-MB-231) was > 10 µM (inactive), the GI50 (SK-OV-3) was > 10 µM (inactive) and the GI50 (UACC-257) was > 10 µM (inactive). For the same molecule, the GI50 (SK-MEL-28) was > 10 µM (inactive), the GI50 (IGROV-1) was > 10 µM (inactive) and the GI50 (SNB-75) was > 10 µM (inactive). The GI50 (M14) was > 10 µM (inactive), the GI50 (NCI-H23) was > 10 µM (inactive) and the GI50 (UACC-62) was > 10 µM (inactive). For the same molecule, the GI50 (COLO 205) was > 10 µM (inactive), the GI50 (PC-3) was > 10 µM (inactive) and the GI50 (SN12C) was > 10 µM (inactive). For the same molecule, the GI50 (SF-268) was > 10 µM (inactive), the GI50 (MCF7) was > 10 µM (inactive) and the GI50 (T47D) was > 10 µM (inactive). The GI50 (KM12) was > 10 µM (inactive), the GI50 (CAKI-1) was > 10 µM (inactive) and the GI50 (MOLT-4) was > 10 µM (inactive). The GI50 (786-0) was > 10 µM (inactive), the GI50 (RXF 393) was > 10 µM (inactive) and the GI50 (EKVX) was > 10 µM (inactive). For the same molecule, the GI50 (HCT-15) was over 10 µM, the GI50 (HOP-62) was > 10 µM (inactive) and the GI50 (Malme-3M) was > 10 µM (inactive). For the same molecule, the GI50 (SF-295) was > 10 µM (inactive), the GI50 (HCC 2998) was > 10 µM (inactive) and the GI50 (TK-10) was > 10 µM (inactive).
In the case of CC(C)(C)c1cc(C(C)(C)C)c(SS(=O)(=O)O)c(O)c1O, the GI50 (SW-620) is reported as 51.4 µM (inactive), the GI50 (K562) is reported as 0.246 µM (active) and the GI50 (MDA-N) is reported as 30.1 µM (inactive). The GI50 (LOX IMVI) was 35.4 µM (inactive), the GI50 (UO-31) was > 100 µM (inactive) and the GI50 (RPMI-8226) was 21.6 µM (inactive). For the same molecule, the GI50 (OVCAR-8) was 44.9 µM (inactive), the GI50 (U-251) was 27.2 µM (inactive) and the GI50 (SK-MEL-5) was 34 µM (inactive). The GI50 (DU-145) was 62.5 µM (inactive), the GI50 (A549) was 9.33 µM (inactive) and the GI50 (HT-29) was 41.1 µM (inactive). For the same molecule, the GI50 (CCRF-CEM) was 49 µM (inactive), the GI50 (MDA-MB-231) was 52.7 µM (inactive) and the GI50 (SK-OV-3) was > 100 µM (inactive). The GI50 (UACC-257) was 79.1 µM (inactive), the GI50 (MDA-MB-435) was 23.9 µM (inactive) and the GI50 (SK-MEL-28) was 81.8 µM (inactive). For the same molecule, the GI50 (IGROV-1) was 55.7 µM (inactive), the GI50 (NCI/ADR-RES) was 58.1 µM (inactive) and the GI50 (SNB-75) was 34.5 µM (inactive). The GI50 (M14) was 41.3 µM (inactive), the GI50 (NCI-H23) was > 100 µM (inactive) and the GI50 (ACHN) was 31.6 µM (inactive). The GI50 (UACC-62) was 21.5 µM (inactive), the GI50 (HL-60) was 65.6 µM (inactive) and the GI50 (BT-549) was > 100 µM (inactive). For the same molecule, the GI50 (COLO 205) was 46.5 µM (inactive), the GI50 (SNB-19) was 46.8 µM (inactive) and the GI50 (A498) was 54.7 µM (inactive). The GI50 (PC-3) was 50.1 µM (inactive), the GI50 (SN12C) was 67 µM (inactive) and the GI50 (SF-268) was 13.4 µM (inactive). The GI50 (HOP-92) was 84.1 µM (inactive), the GI50 (MCF7) was 36.3 µM (inactive) and the GI50 (T47D) was 33.7 µM (inactive). For the same molecule, the GI50 (SF-539) was 15.1 µM (inactive), the GI50 (OVCAR-3) was 34.1 µM (inactive) and the GI50 (NCI-H460) was 10.9 µM (inactive). The GI50 (KM12) was 41.8 µM (inactive), the GI50 (CAKI-1) was 52.2 µM (inactive) and the GI50 (SK-MEL-2) was 21.2 µM (inactive). For the same molecule, the GI50 (NCI-H226) was 40 µM (inactive), the GI50 (OVCAR-4) was 28.9 µM (inactive) and the GI50 (MOLT-4) was < 0.01 µM (active). The GI50 (HCT-116) was 33 µM (inactive), the GI50 (786-0) was 63.7 µM (inactive) and the GI50 (RXF 393) was 28.2 µM (inactive). The GI50 (EKVX) was 62.1 µM (inactive), the GI50 (HCT-15) was 48.3 µM and the GI50 (HOP-62) was 54.6 µM (inactive). For the same molecule, the GI50 (Malme-3M) was 97.5 µM (inactive), the GI50 (SF-295) was 31.8 µM (inactive) and the GI50 (OVCAR-5) was > 100 µM (inactive). The GI50 (TK-10) was > 100 µM (inactive).
